One series concerns hypoxic cell. The following applies: cited from earlier work.
Series [1] relates to breast carcinoma cell EMT6/KU. The experiment in a line: In vitro hypoxic cell sensitization effect (colony formation, gamma-ray). In kind it is cell-based, Balb/c mouse. The following applies: 1 mM test compound, EMT6/KU hypoxic cells, ratio of radiation amounts without/with compound. Here is the method: The degree of the hypoxic cell radiosensitization effects of optical isomers of the present invention as compared with the racemate was studied by the in vitro assay.
Specifically, the radiosensitization effects were investigated using breast carcinoma cell EMT6/KU derived from Balb/c mouse. A hypoxic cell suspension was prepared from MEM suspension-containing EMT6/KU cells at a concentration 4×10^5 cells/ml by adding the test compound to a final concentration of 1 mM, and gently shaking it under a nitrogen gas stream containing 5% CO2 for one hour at room temperature. Gamma-ray was irradiated to the suspension and a radiation-survival rate curve was developed by the colony formation method. The sensitization rate was determined from this radiation-survival rate curve by dividing (i) the amount of radiation which decreases the survival rate of the hypoxic cells by 1% when no test compound was added by (ii) the amount of radiation which decreases the survival rate of the hypoxic cells by 1% when the test compound was added.

Series [2] is described as follows: Dissolution test (solubility). In kind it is physicochemical. The following applies: for solubilities compared with SR-RS racemate: water and physiological saline. Here is the method: Solubilities of SS, RR, SR, and RS isomers and SR-RS racemate in water and physiological saline were determined.
Series [3] can be described thus: Octanol-phosphate partition coefficient. It counts as physicochemical. The following applies: for logD at 24 h: octanol/0.2 m phosphate buffer; for partition coefficient: average of 1.4 times and 0.7 times; for partition coefficient / partition coefficient at 0.7 times the solubility in octanol / partition coefficient at 1.4 times the solubility in octanol: 1440 min; for partition coefficient at 0.7 times the solubility in octanol / partition coefficient at 1.4 times the solubility in octanol: octanol/0.2 mol phosphate buffer pH 7.4, 20° C.; for partitioning toward the octanol layer: octanol-phosphate, pH 7.4. As for the experimental part: The partition coefficient in the octanol-phosphate buffer solution system, which is indicative of the degree of orientation toward nerve tissues, was determined. […] To the weighed samples 10 ml of 0.2 mol phosphate buffer (pH 7.4), defined in the Pharmacopoeia of Japan, and 10 ml of octanol were added. The mixtures were shaken for 24 hours at 20° C. under light shielding. Octanol and phosphate layers were partitioned to determine the absorbance of each layer. […] The partition coefficients obtained were averaged to determine the partition coefficient of each sample.

The test system of series [4] is EMT6/KU-cancerated Balb/c mouse. Nature of the series: In vivo-in vitro hypoxic cell sensitization effect (EMT6/KU tumour-bearing mouse, gamma-ray, colony forming method). The following applies: 200 mg/kg; 20 Gy gamma-ray 30 minutes thereafter. As for the experimental part:
The degree of the hypoxic cell radiosensitization effects of optical isomers of the present invention in in vivo-in vitro system was investigated in the same manner using the racemate as a control. Specifically, the radiosensitization effects were investigated using EMT6/KU-cancerated Balb/c mouse. 200 mg/kg of each test compound was administered and 20 Gy gamma-ray was irradiated 30 minutes thereafter. Carcinoma was extracted and treated with trypsin to prepare a cell suspension. The survival rate was determined by the colony forming method. A physiological saline solution was administered to the control.

Series [5] in a line: Acute toxicity test (LD50/14), i.v. or i.p. The following applies: mouse, in vivo. From the text: Test compounds, dissolved in physiological saline or a physiological saline solution containing 10% DMSO, were intravenously or intraperitoneally injected to ICR male mice, aged 5 weeks.
The next series has as its system male ICR mice. The following applies: mouse, in vivo, iv. As for the experimental part:
The acute toxicity was determined using groups of male ICR mice, aged 5 weeks, each group consisting of five mice. Test compounds were dissolved in physiological saline and administered by injection through caudal vein. The death-survival determination was made 14 days after the administration.

Where [6] appears, read: physiological saline, read-out: Solubility in physiological saline.
Where [7] appears, read: water, read-out: Solubility in water.
[8] abbreviates: pH 7.4, average of 1.4 times and 0.7 times, pH 7.4, 20° C., read-out: partition coefficient (converted).
[9] abbreviates: pH 7.4, octanol/0.2 mol phosphate buffer pH 7.4, 20° C., 24 hours, 0.7 times, read-out: partition coefficient at 0.7 times the solubility in octanol (converted).
Where [10] appears, read: pH 7.4, octanol/0.2 mol phosphate buffer pH 7.4, 20° C., 24 hours, 1.4 times, read-out: partition coefficient at 1.4 times the solubility in octanol (converted).
Setting [11] is: intravenously or intraperitoneally, ICR male mice, 14 days.

Values after ≈ are worked out from the molar mass of the structure shown. Where two headings read alike, the source gives them in different places.

Usually solubility stands for the concentration that dissolves in the medium under given conditions. As to `O=[N+]([O-])c1nccn1CO[C@H](CO)[C@@H](O)CO` (relative stereo) [SR-RS racemate, (1'RS,2'SR)-1-[(2',3'-dihydroxy-1' -hydroxymethyl)propoxy]methyl-2-nitroimidazole], the “hypoxic cell radiosensitization effect compared with misonidazole” value in the series on hypoxic cell is given as “about the same degree of hypoxic cell radiosensitization effect as misonidazole”. Moreover, the “Hypoxic cell sensitization rate” value in series [1] is reported as 1.7. Also, the solubility in series [2] (setting [6]) and in series [2] (setting [7]) was 40 mg/mL (≈ 162 mM) throughout. Moreover, the logD at 24 h is -1.33 in series [3] (setting [8]), -1.24 in series [3] (setting [9]) and -1.43 in series [3] (setting [10]). In addition, the “Hypoxic cell survival rate” value in series [4] is given as 0.08%.
For `O=[N+]([O-])c1nccn1COC(CO)C(O)CO` (single isomer, unassigned) [RS or SR isomer (rotation(+))], the “Hypoxic cell sensitization rate” value in series [1] is on record as 1.7. In addition, in series [2] (setting [6]), the solubility came to 70 mg/mL (≈ 283 mM). In addition, in series [3] (pH 7.4, 20° C.), the partition coefficient came out at 0.056. Further, in series [3] (24 hours, 0.7 times), the “partition coefficient at 0.7 times the solubility in octanol” value is 0.059. Moreover, the “partition coefficient at 1.4 times the solubility in octanol” value in series [3] (24 hours, 1.4 times) was found to be 0.053. The “Hypoxic cell survival rate” value in series [4] turned out to be 0.08%.
`O=[N+]([O-])c1nccn1COC(CO)C(O)CO` (single isomer, unassigned) [RS or SR isomer (rotation(-))]: the “Hypoxic cell sensitization rate” value in series [1] worked out at 1.7. The “Solubility in physiological saline” value in series [2] (physiological saline) amounted to 0.06 g/ml. Moreover, the partition coefficient in series [3] (pH 7.4, 20° C.) was found to be 0.053. The “partition coefficient at 0.7 times the solubility in octanol” value in series [3] (24 hours, 0.7 times) is on record as 0.058. Also, in series [3] (24 hours, 1.4 times), the “partition coefficient at 1.4 times the solubility in octanol” value stood at 0.048. Also, the “Hypoxic cell survival rate” value in series [4] worked out at 0.08%.
The LD50 is the dose at which mortality reaches 50%. In the case of `O=[N+]([O-])c1nccn1CO[C@H](CO)[C@@H](O)CO` [Compound (3)], in series [5] (setting [11]), the 50% lethal dose (LD50) at 336 h is 5900 mg/kg.
On the same count and under the same terms, the figure for `O=[N+]([O-])c1nccn1CO[C@@H](CO)[C@H](O)CO` [Compound (4)] is 5900 mg/kg.
On to `COCC(O)Cn1ccnc1[N+](=O)[O-]` (stereo not drawn) [Misonidazole, reference compound], for which the logD at 24 h in series [3] (setting [8]) was -0.409; in series [3] (setting [9]) it was -0.397; in series [3] (setting [10]), -0.423.
In turn, `O=[N+]([O-])c1nccn1CO[C@H](CO)[C@H](O)CO` [RR isomer, (1'R,2'R)-1-[(2', 3'-dihydroxy-1'-hydroxymethyl)propoxy]methyl-2-nitroimidazole] showed an LD50 at 336 h in series [5] of 6000 mg/kg. In series [1], the “Hypoxic cell sensitization rate” value was 1.8. The solubility in series [2] (setting [6]) is 870 mg/mL (≈ 3520 mM); in series [2] (setting [7]), 740 mg/mL (≈ 2990 mM). The “solubilities compared with SR-RS racemate” value in series [2] is “remarkably larger than that of SR-RS racemate”. Besides, in series [3], the “partitioning toward the octanol layer” value is on record as “less partitioned toward the octanol layer”. The logD at 24 h in series [3] (setting [8]) was -1.6; in series [3] (setting [9]), -1.59; in series [3] (setting [10]) it was -1.62. The “Hypoxic cell survival rate” value in series [4] is given as 0.07%.
As to `O=[N+]([O-])c1nccn1CO[C@H](CO)[C@@H](O)CO` [RS isomer], the “solubilities compared with SR-RS racemate” value in series [2] is given as “remarkably larger than that of SR-RS racemate”.
Same read-out and setting: next, `O=[N+]([O-])c1nccn1CO[C@@H](CO)[C@H](O)CO` [SR isomer]: “remarkably larger than that of SR-RS racemate”.
On to `O=[N+]([O-])c1nccn1CO[C@@H](CO)[C@@H](O)CO` [SS isomer, (1'S,2'S)-1-[(2', 3'-dihydroxy-1'-hydroxymethyl)propoxy]methyl-2-nitroimidazole], for which the median lethal dose (LD50) at 336 h in series [5] worked out at 6000 mg/kg. Further, the “Hypoxic cell sensitization rate” value in series [1] came out at 1.8. The solubility in series [2] (setting [6]) turned out to be 820 mg/mL (≈ 3320 mM); in series [2] (setting [7]), 850 mg/mL (≈ 3440 mM). Moreover, the “solubilities compared with SR-RS racemate” value in series [2] is listed as “remarkably larger than that of SR-RS racemate”. The “partitioning toward the octanol layer” value in series [3] is recorded as “less partitioned toward the octanol layer”. The logD at 24 h in series [3] (setting [8]) was -1.55; in series [3] (setting [9]), -1.51; in series [3] (setting [10]), -1.59. Moreover, in series [4], the “Hypoxic cell survival rate” value is given as 0.07%. Besides, the “safety compared with other optically active isomers” value in the series on male ICR mice is on record as “better safety than other optically active isomers”.

Values taken from US5532380A, “R,R,S,S-2-nitroimidazole derivatives” (Pola Chemical Industries, Inc., priority 1992, dated 1996).
